Data on two compounds can be found in patent publication US20100311714A1, “1H-IMIDAZO[4,5-c]QUINOLINONE COMPOUNDS” (priority 2009, published 2010).

Experiment [1] relates to S6 Ribosomal Protein phosphorylation Ser235/236 in TSC1 null mouse embryo fibroblast (MEF) cells. Kind of experiment: Reverse protein array, S6 Ribosomal Protein phosphorylation in TSC1 null MEF cells. As to conditions: 1 h, TSC1-/- MEFs, 60 minutes, read-out: p-S6 IC50. The class given is cell-based. In outline:
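Phospho-S6 (Ser235/236) was quantified by reverse protein array of cell lysates with a phospho-specific primary antibody. […]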

The next experiment deals with T1, mTOR (Homo sapiens, UniProt P42345).
T1 construct: purchased Invitrogen Corporation (Carlsbad/Calif., USA) PV4753
T1 sequence (P42345 1360-2549 limits assumed): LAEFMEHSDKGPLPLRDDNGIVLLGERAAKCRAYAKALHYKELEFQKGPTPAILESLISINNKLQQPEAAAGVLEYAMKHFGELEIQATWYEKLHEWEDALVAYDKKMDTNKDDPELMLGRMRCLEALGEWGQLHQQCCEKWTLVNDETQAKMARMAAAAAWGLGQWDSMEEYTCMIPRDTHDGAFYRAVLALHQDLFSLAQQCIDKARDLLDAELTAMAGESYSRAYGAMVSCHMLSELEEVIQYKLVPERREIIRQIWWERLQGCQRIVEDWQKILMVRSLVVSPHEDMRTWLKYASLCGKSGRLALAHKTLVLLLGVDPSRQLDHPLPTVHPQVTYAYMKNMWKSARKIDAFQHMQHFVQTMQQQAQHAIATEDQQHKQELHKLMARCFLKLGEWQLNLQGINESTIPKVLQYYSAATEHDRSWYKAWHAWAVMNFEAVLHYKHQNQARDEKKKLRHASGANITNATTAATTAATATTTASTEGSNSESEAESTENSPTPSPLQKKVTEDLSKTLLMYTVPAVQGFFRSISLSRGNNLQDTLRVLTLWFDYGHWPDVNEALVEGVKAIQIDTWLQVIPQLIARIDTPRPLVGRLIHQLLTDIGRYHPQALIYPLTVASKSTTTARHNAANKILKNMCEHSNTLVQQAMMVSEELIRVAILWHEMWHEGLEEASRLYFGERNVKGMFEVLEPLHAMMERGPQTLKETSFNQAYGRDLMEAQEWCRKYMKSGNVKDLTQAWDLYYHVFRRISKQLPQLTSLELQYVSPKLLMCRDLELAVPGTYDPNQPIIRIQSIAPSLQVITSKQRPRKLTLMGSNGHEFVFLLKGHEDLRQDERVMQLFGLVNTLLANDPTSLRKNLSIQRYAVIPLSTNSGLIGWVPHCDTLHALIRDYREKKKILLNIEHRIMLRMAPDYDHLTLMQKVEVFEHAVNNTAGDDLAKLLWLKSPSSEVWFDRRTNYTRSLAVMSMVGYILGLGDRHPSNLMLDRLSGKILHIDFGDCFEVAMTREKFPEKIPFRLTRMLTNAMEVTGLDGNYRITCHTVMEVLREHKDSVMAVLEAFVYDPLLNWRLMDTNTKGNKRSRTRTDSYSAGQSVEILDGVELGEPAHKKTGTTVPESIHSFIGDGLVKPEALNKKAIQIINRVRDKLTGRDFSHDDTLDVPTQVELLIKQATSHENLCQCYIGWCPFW
Description: Biochemical assay for m-TOR by TR-FRET. The note with it: read-out: EPK_mTOR/IC50. The gist of the method:
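mTOR (0.5 nM) phosphorylates GFP-4EBP1 (400 nM) with 8 μM ATP at rt in 50 mM HEPES pH 7.5, 10 mM MnCl2, 50 mM NaCl, 1 mM EGTA, 1 mM DTT; compounds 0.003–10 μM final. EDTA stop with Tb-anti-p4EBP1[pT46] antibody (0.5 nM); TR-FRET read after 15 min against no-enzyme and vehicle controls.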

Take `CNc1cc(-c2ccc3ncc4c(c3c2)n(-c2ccc(C(F)(F)F)nc2C)c(=O)n4C)cnc1CO` [Example 33.2, 8-(6-Hydroxymethyl-5-methylamino-pyridin-3-yl)-3-methyl-1-(2-methyl-6-trifluoromethyl-pyridin-3-yl)-1,3-dihydro-imidazo[4,5-c]quinolin-2-one]: the results for the IC50 (in experiment [1]; at mTOR) were 2 nM and 3 nM, respectively.

As to `Cc1nc(N2CC(F)(F)C(F)(F)C2)ccc1-n1c(=O)n(C)c2cnc3ccc(-c4cncc(C(C)(C)O)c4)cc3c21` [Example 35.1, 8-[5-(1-Hydroxy-1-methyl-ethyl)-pyridin-3-yl]-3-methyl-1-[2-methyl-6-(3,3,4,4-tetrafluoro-pyrrolidin-1-yl)-pyridin-3-yl]-1,3-dihydro-imidazo[4,5-c]quinolin-2-one], the IC50 stood at 0.79 nM in experiment [1] and 68 nM on mTOR.
